Experimental data: patent publication US20080299166A1, “NOVEL BIOMATERIALS, THEIR PREPARATION AND USE” (priority 2002, published 2008)

Experiment: In vitro release of Ketotifen-hydrogenfumarate from drug-loaded polymeric matrix
Assay type: physicochemical
Details: under the same conditions (stirred aqueous system)
Experimental: Two consecutive batches of the polymeric matrix were prepared at lab scale and loaded with the selected water-soluble investigational drug, Ketotifen hydrogenfumarate in accordance with the method described in Example 11. The in vitro release profile of the Ketotifen depot formulation was carried out as follows: […]
1 g of the dry polymeric matrix loaded with Ketotifen-hydrogenfumarate according to Example 11. was stirred with 600 r.p.m. in 50 ml of deionised water at 37° C. The released amount of Ketotifen-hydrogenfumarate was determined by HPLC.
Matrices with 8% Ketotifen load were prepared as described in Example 11. Using two different Hyaluronic acid containing reaction mixtures. One contained 1%, while the other 0.5% hyaluronic acid. […] (See Table 7.) The in vitro dissolution test was performed as described in Example 12.

CN1CCC(=C2c3ccccc3CC(=O)c3sccc32)CC1 [non-formulated plain Ketotifen, Ketotifen-hydrogenfumarate]
release compared with the matrix: much faster
